The text below walks through data of US6534525B1, “2-substituted piperidine analogs and their use as subtype-selective NMDA receptor antagonists” (Warner-Lambert & Company, priority 1995, dated 2003).

Where a name gives a salt, the structure may show the parent alone. Read-outs that look alike come from different tables or passages of the source.

In series [1] the target is NMDA receptor subunits 1A/2A (NR1A+NR2A) (Rattus norvegicus, UniProt P35439+Q00959). As to the kind of experiment: Electrophysiological assay at cloned NMDA receptor subunits expressed in Xenopus oocytes, 1A/2A. It counts as cell-based. The protocol:
(§1) Electrophysiological Assays at NMDA Receptor Subunits
(§2) The clones were transformed into appropriate host bacteria and plasmid preparations were made with conventional DNA purification techniques. A sample of each clone was linearized by restriction enzyme digestion and cRNA was synthesized with T3 RNA polymerase. The cRNA was diluted to 400 ng/μl and stored in 1 μl aliquots at −80° C. until injection.
(§3) The Xenopus oocyte Expression System
(§4) Follicle-enclosed oocytes were micro-injected with 1:1 mixtures of cRNA:NR1A+NR2A, 2B, 2C or 2D; injecting ˜2,5, or 20 ng of RNA encoding each receptor subunit. NR1A encoding cRNA was injected alone at ˜20 ng. Oocytes were stored in Barth's medium containing (in mM):NaCl, 88; KCl, 1; CaCl2, 0.41; Ca(NO3)2, 0.33; MgSO4, 0.82 NaHCO3, 2.4; HEPES 5, pH 7.4, with 0.1 mg/ml gentamicin sulphate. While oocytes were still surrounded by enveloping ovarian tissues the Barth's medium was supplemented with 0.1% bovine serum.
(§5) Electrical recordings were made using a conventional two-electrode voltage clamp (Dagan TEV-200) over periods ranging between 3-14 days following injection. […] Drugs were applied by bath perfusion. Using oocytes expressing different subunit combinations of NMDA receptor, NMDA currents were activated by co-application of glutamate and glycine. Inhibitory potency of the novel antagonists was assessed on responses elicited by fixed concentrations of glutamate and glycine, by measuring reductions in current induced by progressively increasing concentrations of antagonists.
(§6) Concentration-inhibition curves were fit with equation 1.
(§7) in which Icontrol is the current evoked by agonists alone, pIC50=−log IC50, IC50 is the concentration of antagonist that produces half maximal inhibition, and n is the slope factor. […] For incomplete curves analysis by fitting was unreliable and IC50 values were calculated by simple regression over linear portions of the curves (Origin: Microcal Software).

In series [2] the target is NMDA receptor subunits 1A/2B (NR1A+NR2B) (Rattus norvegicus, UniProt P35439+Q00960). The series can be described thus: Electrophysiological assay at cloned NMDA receptor subunits expressed in Xenopus oocytes, 1A/2B. It counts as cell-based. The protocol:
as §1, §2, §3, §4, §5, §6, §7

Series [3] addresses NMDA receptor subunits 1A/2C (NR1A+NR2C) (Rattus norvegicus, UniProt P35439+Q00961). The series can be described thus: Electrophysiological assay at cloned NMDA receptor subunits expressed in Xenopus oocytes, 1A/2C. It counts as cell-based. On the procedure: as §1, §2, §3, §4, §5, §6, §7
For series [4], the system named is maximal electroshock-induced seizures. The series can be described thus: Maximal electroshock-induced seizures (MES). It counts as in vivo, mice. To be noted: Mus musculus, read-out: MES (ED50) (mg/kg). The protocol: Maximal Electroshock-induced Seizures
Seizures were induced by application of current (50 mA, 60 pulses/sec, 0.8 sec pulse width, 1 sec duration, d.c.) through saline-coated corneal electrodes using a Ugo Basile ECT device (Model 7801). […] A tonic seizure was defined as a hindlimb extension in excess of 90 degrees from the plane of the body. Results were treated in a quantal manner.

The mark [5] stands for this setting: cloned rat NMDA receptor in Xenopus oocytes, two-electrode voltage clamp, currents activated by glutamate and glycine, read-out: Subunits (IC50(μM)) 1A/2A.
The mark [6] stands for this setting: cloned rat NMDA receptor in Xenopus oocytes, two-electrode voltage clamp, currents activated by glutamate and glycine, read-out: Subunits (IC50(μM)) 1A/2B.
[7] abbreviates: cloned rat NMDA receptor in Xenopus oocytes, two-electrode voltage clamp, currents activated by glutamate and glycine, read-out: Subunits (IC50(μM)) 1A/2C.

NMDA receptor subunits 1A/2B (NR1A+NR2B), sequence (Q00960 27-1482, other chains not shown): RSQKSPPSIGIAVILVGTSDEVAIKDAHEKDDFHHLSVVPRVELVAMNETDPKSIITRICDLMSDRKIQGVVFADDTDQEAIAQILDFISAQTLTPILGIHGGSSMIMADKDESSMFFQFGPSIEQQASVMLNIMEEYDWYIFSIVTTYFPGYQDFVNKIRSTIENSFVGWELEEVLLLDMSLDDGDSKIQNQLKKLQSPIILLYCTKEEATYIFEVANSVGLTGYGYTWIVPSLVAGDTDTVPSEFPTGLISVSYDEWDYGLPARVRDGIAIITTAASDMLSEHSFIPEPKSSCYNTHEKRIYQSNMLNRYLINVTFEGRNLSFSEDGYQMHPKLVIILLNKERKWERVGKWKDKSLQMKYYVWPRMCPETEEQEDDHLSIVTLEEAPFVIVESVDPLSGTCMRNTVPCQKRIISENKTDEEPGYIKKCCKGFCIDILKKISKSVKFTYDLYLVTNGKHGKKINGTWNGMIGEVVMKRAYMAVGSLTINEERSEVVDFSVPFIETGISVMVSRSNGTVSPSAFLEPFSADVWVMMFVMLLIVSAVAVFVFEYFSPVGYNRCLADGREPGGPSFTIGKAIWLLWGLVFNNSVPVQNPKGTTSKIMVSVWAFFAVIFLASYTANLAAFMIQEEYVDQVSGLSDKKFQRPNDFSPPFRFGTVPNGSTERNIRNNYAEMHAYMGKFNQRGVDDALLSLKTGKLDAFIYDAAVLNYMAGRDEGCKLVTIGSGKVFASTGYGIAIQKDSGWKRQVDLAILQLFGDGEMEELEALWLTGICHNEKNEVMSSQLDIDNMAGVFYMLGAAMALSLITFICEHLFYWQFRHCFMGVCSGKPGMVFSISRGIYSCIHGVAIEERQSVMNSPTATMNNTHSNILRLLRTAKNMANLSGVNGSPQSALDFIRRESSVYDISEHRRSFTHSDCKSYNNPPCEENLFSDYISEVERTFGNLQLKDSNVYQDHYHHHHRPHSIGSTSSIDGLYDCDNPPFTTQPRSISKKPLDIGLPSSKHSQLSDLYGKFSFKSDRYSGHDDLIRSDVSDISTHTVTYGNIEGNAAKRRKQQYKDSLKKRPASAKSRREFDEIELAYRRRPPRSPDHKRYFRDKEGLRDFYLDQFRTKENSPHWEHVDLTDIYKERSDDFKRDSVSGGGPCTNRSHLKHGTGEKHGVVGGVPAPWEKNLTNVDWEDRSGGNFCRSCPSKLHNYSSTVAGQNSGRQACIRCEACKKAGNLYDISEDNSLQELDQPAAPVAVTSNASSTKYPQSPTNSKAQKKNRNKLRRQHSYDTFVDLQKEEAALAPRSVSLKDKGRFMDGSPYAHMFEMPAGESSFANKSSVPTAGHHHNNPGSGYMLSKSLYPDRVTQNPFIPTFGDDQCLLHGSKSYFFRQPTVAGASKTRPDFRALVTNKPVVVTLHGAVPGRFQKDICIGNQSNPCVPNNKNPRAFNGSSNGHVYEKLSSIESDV
NMDA receptor subunits 1A/2A (NR1A+NR2A), sequence (Q00959 23-1464, other chains not shown): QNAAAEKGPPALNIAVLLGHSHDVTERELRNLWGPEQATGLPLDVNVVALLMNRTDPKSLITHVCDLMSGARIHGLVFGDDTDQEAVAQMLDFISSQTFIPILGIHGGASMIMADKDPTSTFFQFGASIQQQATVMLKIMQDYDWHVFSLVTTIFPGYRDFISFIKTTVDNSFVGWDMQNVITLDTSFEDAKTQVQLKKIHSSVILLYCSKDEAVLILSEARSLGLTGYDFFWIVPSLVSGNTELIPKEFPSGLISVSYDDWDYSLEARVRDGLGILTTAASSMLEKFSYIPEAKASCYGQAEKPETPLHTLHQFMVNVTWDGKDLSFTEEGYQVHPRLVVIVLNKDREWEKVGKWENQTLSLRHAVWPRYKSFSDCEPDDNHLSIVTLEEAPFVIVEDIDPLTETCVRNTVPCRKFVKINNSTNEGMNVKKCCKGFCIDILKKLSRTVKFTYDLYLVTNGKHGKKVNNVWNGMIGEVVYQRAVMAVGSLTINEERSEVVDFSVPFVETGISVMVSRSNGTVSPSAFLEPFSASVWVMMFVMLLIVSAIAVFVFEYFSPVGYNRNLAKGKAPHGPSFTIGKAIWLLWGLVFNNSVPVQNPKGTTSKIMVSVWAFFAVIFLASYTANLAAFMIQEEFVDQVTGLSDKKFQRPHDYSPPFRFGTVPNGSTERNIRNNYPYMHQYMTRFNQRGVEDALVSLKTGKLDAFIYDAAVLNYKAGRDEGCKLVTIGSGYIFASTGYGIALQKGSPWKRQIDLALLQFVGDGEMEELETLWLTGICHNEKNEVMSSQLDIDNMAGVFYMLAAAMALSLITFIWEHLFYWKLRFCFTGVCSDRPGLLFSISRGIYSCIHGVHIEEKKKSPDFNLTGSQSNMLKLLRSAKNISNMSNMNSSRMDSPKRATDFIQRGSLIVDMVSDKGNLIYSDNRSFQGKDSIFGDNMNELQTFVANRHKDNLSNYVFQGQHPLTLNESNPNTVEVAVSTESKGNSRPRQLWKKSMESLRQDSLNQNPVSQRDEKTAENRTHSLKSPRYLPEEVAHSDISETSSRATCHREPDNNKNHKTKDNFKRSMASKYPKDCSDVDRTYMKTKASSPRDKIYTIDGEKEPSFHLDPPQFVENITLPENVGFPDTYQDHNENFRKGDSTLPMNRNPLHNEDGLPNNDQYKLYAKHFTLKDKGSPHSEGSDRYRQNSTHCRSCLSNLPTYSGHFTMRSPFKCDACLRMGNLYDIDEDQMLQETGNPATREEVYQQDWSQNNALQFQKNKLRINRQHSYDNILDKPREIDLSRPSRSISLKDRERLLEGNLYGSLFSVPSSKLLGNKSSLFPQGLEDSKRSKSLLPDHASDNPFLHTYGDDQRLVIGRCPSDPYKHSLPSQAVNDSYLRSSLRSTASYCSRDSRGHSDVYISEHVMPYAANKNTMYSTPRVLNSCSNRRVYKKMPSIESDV
NMDA receptor subunits 1A/2C (NR1A+NR2C), sequence (Q00961 20-1237, other chains not shown): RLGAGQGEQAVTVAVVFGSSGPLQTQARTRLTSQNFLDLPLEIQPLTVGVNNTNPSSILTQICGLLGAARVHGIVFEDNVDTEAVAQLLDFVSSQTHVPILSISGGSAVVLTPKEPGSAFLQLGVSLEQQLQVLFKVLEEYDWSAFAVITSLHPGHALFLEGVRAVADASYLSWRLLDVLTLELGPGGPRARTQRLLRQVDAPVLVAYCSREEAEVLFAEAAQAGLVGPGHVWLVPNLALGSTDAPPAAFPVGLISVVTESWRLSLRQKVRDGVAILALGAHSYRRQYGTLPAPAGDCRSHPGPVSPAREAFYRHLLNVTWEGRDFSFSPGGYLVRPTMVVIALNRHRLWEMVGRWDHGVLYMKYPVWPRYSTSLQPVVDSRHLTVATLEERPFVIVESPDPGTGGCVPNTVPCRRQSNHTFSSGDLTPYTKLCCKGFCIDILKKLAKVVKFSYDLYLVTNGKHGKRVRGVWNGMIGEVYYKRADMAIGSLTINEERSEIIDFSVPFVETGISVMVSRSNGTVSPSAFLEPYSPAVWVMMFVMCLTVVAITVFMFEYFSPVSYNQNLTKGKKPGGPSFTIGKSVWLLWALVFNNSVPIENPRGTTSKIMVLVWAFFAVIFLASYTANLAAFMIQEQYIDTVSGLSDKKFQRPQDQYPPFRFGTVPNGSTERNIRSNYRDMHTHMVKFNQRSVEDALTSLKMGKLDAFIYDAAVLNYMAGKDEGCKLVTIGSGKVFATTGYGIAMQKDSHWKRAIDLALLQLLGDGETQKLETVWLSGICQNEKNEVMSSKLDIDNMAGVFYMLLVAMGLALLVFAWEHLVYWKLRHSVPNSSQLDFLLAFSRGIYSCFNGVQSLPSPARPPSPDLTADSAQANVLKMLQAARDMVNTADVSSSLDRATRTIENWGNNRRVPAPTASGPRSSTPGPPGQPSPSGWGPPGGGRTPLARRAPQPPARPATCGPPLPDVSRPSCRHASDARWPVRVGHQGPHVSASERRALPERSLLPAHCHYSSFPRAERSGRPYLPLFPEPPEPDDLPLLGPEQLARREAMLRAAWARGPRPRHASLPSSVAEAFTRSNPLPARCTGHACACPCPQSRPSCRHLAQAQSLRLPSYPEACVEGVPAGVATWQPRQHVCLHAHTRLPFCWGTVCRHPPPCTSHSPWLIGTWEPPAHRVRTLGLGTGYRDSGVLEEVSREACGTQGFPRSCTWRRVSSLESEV

With `Fc1ccc(OCC[n+]2ccccc2Cc2ccc(Cl)cc2)cc1.[Br-]`, the melting point (as a rule, the temperature, or range, at which the solid turns liquid) lay within 179 to 180 °C.
`Br.FC(F)(F)c1cccc(OCCCCN2CCCCC2Cc2ccccc2)c1` (centres unmarked) returned a melting point of 143.5 to 144.5 °C.
Regarding `Oc1ccc(OCCCCN2CCCCC2Cc2ccccc2)cc1` (centres unmarked) [Example 28, 2-Benzyl-1-(4-(4-hydroxyphenoxy)butyl)piperidine hydrochloride], the values for the IC50 in series [1] (setting [5]), in series [2] (setting [6]) and in series [3] (setting [7]) were 15 µM, 10 µM and 110 µM, respectively.
`c1ccc(CC2CCCCN2Cc2ccccc2)cc1` (centres unmarked) [Example 2, 1,2-Dibenzylpiperidine, hydrobromide]: the IC50 is 15 µM in series [1] (setting [5]), 19 µM in series [2] (setting [6]) and 33 µM in series [3] (setting [7]).
For the molecule `Cl.Oc1ccc(OCCN2CCCCC2Cc2ccc(Cl)cc2)cc1` (centres unmarked) [Example 25, 2-(4-Chlorobenzyl)-1-(2-(4-hydroxyphenoxy)ethyl)piperidine hydrochloride], the melting point fell in the range of 229 to 230 °C. Further, in series [1], the IC50 turned out to be 62 µM. The IC50 in series [2] was 4.2 µM. The IC50 in series [3] came out at 160 µM.
For `Cl.Oc1ccc(OCCN2CCCCC2Cc2ccccc2)cc1` (centres unmarked) [Example 26, 2-Benzyl-1-(2-(4-hydroxyphenoxy)ethyl)piperidine hydrochloride], in that order: 215 to 216 °C, 80 µM, 15 µM and 150 µM.
Regarding `O=c1[nH]c2ccc(OCCN3CCCCC3Cc3ccccc3)cc2[nH]1` (centres unmarked) [Example 30, 2-Benzyl-1-(4-(2-oxobenzimidazol-5-oxy)ethyl)piperidine], the figures for the IC50 in series [1] (setting [5]), in series [2] (setting [6]) and in series [3] (setting [7]) were 7.5 µM, 5 µM and 33 µM, respectively.
In the case of `O=[N+]([O-])c1ccc(OCCN2CCCCC2Cc2ccccc2)cc1` (centres unmarked) (as salt: hydrobromid) [Example 21, 2-Benzyl-1-(2-(4-nitrophenoxy)ethyl)-piperidine hydrobromide], the melting point is 180 to 182 °C.
In the case of `Br.c1ccc(CCCN2CCCCC2Cc2ccccc2)cc1` (centres unmarked) [Example 4, 2-Benzyl-1-(3-phenylpropyl)piperidine, hydrobromide], the melting point fell in the range of 155 to 157 °C. Moreover, the IC50 in series [1] (setting [5]) came to 8 µM. Besides, the IC50 in series [2] (setting [6]) stood at 15 µM. Also, in series [3] (setting [7]), the IC50 amounted to 125 µM.
`Br.c1ccc(CCCCN2CCCCC2Cc2ccccc2)cc1` (centres unmarked) displayed a melting point of 133 to 135 °C.
In the case of `Nc1ccc(OCCN2CCCCC2Cc2ccccc2)cc1` (centres unmarked) [Example 22, 1-(2-(4-Aminophenoxy)ethyl)-2-benzylpiperidine dihydrobromide], the IC50 in series [1] (setting [5]) came to 80 µM; in series [2] (setting [6]), 6 µM; in series [3] (setting [7]), 180 µM.
In turn, `c1ccc(CC2CCCCN2CCCCCOc2ccccc2)cc1` (centres unmarked) (as salt: hydrobromid) [Example 20, 2-Benzyl-1-(5-phenoxypentyl)piperidine hydrobromide] showed a melting point of 137.5 to 139.5 °C.
With `c1ccc(CC2CCCCN2CCOc2ccccc2)cc1` (centres unmarked) [Example 6, 2-Benzyl-1-(2-phenoxyethyl)piperidine], the IC50 in series [1] (setting [5]) came to 17 µM; in series [2] (setting [6]), 25 µM; in series [3] (setting [7]) it was 130 µM.
Turning to `Br.FC(F)(F)c1ccc(OCCCCN2CCCCC2Cc2ccccc2)cc1` (centres unmarked), the melting point lay in the range of 130 to 134 °C.
For the molecule `c1ccc(CC2CCCCN2CCCCCOc2ccccc2)cc1` (centres unmarked) [Example 20, 2-Benzyl-1-(5-phenoxypentyl)piperidine hydrobromide], the IC50 was 14 µM in series [1] (setting [5]), 22 µM in series [2] (setting [6]) and 70 µM in series [3] (setting [7]).
As to `Br.c1ccc(CCN2CCCCC2Cc2ccccc2)cc1` (centres unmarked), the melting point was in the range of 162.5 to 164.5 °C.
On the same count and under the same terms, the same measure for `Br.c1ccc(CC2CCCCN2CCCCOc2ccccc2)cc1` (centres unmarked): 100 to 103 °C; for `Br.Fc1cccc(OCCCCN2CCCCC2Cc2ccccc2)c1` (centres unmarked): 119 to 123 °C.
With `O=[N+]([O-])c1ccc(OCCN2CCCCC2Cc2ccccc2)cc1` (centres unmarked) [Example 21, 2-Benzyl-1-(2-(4-nitrophenoxy)ethyl)-piperidine hydrobromide], the values for the IC50 in series [1] (setting [5]), in series [2] (setting [6]) and in series [3] (setting [7]) were 60 µM, 35 µM and 240 µM, respectively.
Take `Cl.Fc1ccc(OCCN2CCCCC2Cc2ccc(Cl)cc2)cc1` (centres unmarked) [Example 24, 2-(4-Chlorobenzyl)-1-(2-(4-fluorophenoxy)ethyl)piperidine hydrochloride]: the melting point lay in the range of 163 to 165 °C. In series [1] (setting [5]), the IC50 was determined as 55 µM. In addition, the IC50 in series [2] (setting [6]) was 22 µM. For the same molecule, the IC50 in series [3] (setting [7]) came to 160 µM.
`Nc1ccc(OCCN2CCCCC2Cc2ccccc2)cc1` (centres unmarked) (as salt: hydrobromid) [Example 22, 1-(2-(4-Aminophenoxy)ethyl)-2-benzylpiperidine dihydrobromide] returned a melting point of 130 °C.
Molecule `Cl.Oc1ccc(OCCCN2CCCCC2Cc2ccccc2)cc1` (centres unmarked) [Example 27, 2-Benzyl-1-(3-(4-hydroxyphenoxy)propyl)piperidine hydrochloride] showed a melting point of 163 to 164 °C. Also, the IC50 in series [1] (setting [5]) was determined as 30 µM. The IC50 in series [2] (setting [6]) was determined as 16 µM. Moreover, in series [3] (setting [7]), the IC50 is 40 µM.
With `c1ccc(CCCCN2CCCCC2Cc2ccccc2)cc1` (centres unmarked) [Example 5, 2-Benzyl-1-(4-phenylbutyl)piperidine], the IC50 was found to be 5 µM in series [1] (setting [5]), 8 µM in series [2] (setting [6]) and 55 µM in series [3] (setting [7]). Further, the ED50 in series [4] was found to be 4 mg/kg.
The molecule `Br.FC(F)(F)c1ccccc1OCCCCN1CCCCC1Cc1ccccc1` (centres unmarked) returned a melting point of 136 to 140 °C.
With `c1ccc(CC2CCCCN2CCCCOc2ccccc2)cc1` (centres unmarked) [Example 8, 2-Benzyl-1-(4-phenoxybutyl)piperidine], the IC50 in series [1] (setting [5]) was found to be 3 µM; in series [2] (setting [6]), 8 µM; in series [3] (setting [7]), 45 µM. Further, the ED50 in series [4] came out at 4 mg/kg.
In turn, `Br.c1ccc(CC2CCCCN2CCCOc2ccccc2)cc1` (centres unmarked) [Example 7, 2-Benzyl-1-(3-phenoxypropyl)piperidine hydrobromide] yielded a melting point of 119 to 121 °C. Further, the IC50 in series [1] (setting [5]) stood at 4 µM. Also, in series [2] (setting [6]), the IC50 stood at 12 µM. For the same molecule, the IC50 in series [3] (setting [7]) turned out to be 45 µM. The ED50 in series [4] worked out at 2.5 mg/kg.
